The record followed here is ChEMBL document CHEMBL1146789, “(+/-)8-Amino-5,6,7,8-tetrahydroisoquinolines as novel antinociceptive agents” (Bioorg Med Chem Lett, 2004).

Active and inactive are the calls of the source. The rule behind the calls is not given here.

Data set [1] relates to Mus musculus. As to the kind of experiment: Antinociceptive action was determined by tail-flick assay in mouse administered subcutaneously. It is filed as functional. To be noted: sc. A general note: Thermal pain tests record how soon the animal reacts.
For data set [2], the system named is Mus musculus. As to the kind of experiment: Antinociceptive action was determined by hotplate assay in mouse administered subcutaneously. Conditions: sc. It is filed as functional.
In data set [3] the test system is Mus musculus. Put plainly: Antinociceptive action was determined by tail-flick assay in mouse administered intrathecally. It is filed as functional. To be noted: central.
The subject of data set [4] is Mus musculus. Put plainly: Antinociceptive action was determined by tail-flick assay in mouse administered subcutaneously at a dose of 10 mg/kg. It is filed as functional. Conditions: route subcutaneous.
The subject of data set [5] is Mus musculus. As to the kind of experiment: Antinociceptive action was determined by tail-flick assay in mouse administered intrathecally at a dose of 20-25 ug. In kind it is functional.
Data set [6] has as its target T1, Neuronal acetylcholine receptor; alpha4/beta2 (Homo sapiens, UniProt P17787+P43681). As to the kind of experiment: Affinity for nicotinic acetylcholine receptor alpha4-beta2. In kind it is protein-complex assay.
In data set [7] the target is Sodium-dependent dopamine transporter (Homo sapiens) (UniProt Q01959). As to the kind of experiment: Binding towards dopamine transporter; NA- Not active.
The next data set concerns the target D(3) dopamine receptor (Homo sapiens, UniProt P35462). Put plainly: Affinity towards human dopamine receptor D3.
Data set [8] concerns the target 5-hydroxytryptamine receptor 2C (Homo sapiens, UniProt P28335). Put plainly: Affinity towards human 5-hydroxytryptamine 2C serotonin receptor.
The next data set concerns the target D(4) dopamine receptor (Homo sapiens, UniProt P21917). Put plainly: Affinity towards human dopamine receptor D4.
Data set [9] has as its target Adrenergic receptor alpha-2 (Homo sapiens, UniProt P08913+P18825+P18089). Put plainly: Affinity towards alpha-2 adrenergic receptor. It is filed as protein assay.
For data set [10], the target named is Muscarinic acetylcholine receptor M4 (Homo sapiens, UniProt P08173). Put plainly: Affinity towards human Muscarinic acetylcholine receptor M4.
Data set [11] can be described thus: Binding towards sodium channel(Na+); NA = Not active.
The target of the next data set is Translocator protein (Homo sapiens, UniProt P30536). As to the kind of experiment: Binding affinity for peripheral benzodiazepine receptor.
The target of data set [12] is Muscarinic acetylcholine receptor M1 (Homo sapiens, UniProt P11229). As to the kind of experiment: Affinity towards human muscarinic acetylcholine receptor M1.
The nature of data set [13]: Binding towards calcium channel(Ca++); NA- Not active.
Data set [14] concerns the target Muscarinic acetylcholine receptor M3 (Homo sapiens, UniProt P20309). As to the kind of experiment: Affinity towards human muscarinic acetylcholine receptor M3.
The target in data set [15] is 5-hydroxytryptamine receptor 1A (Homo sapiens, UniProt P08908). Put plainly: Affinity towards human 5-hydroxytryptamine 1A serotonin receptor.
The target in data set [16] is 5-hydroxytryptamine receptor 6 (Homo sapiens, UniProt P50406). Put plainly: Affinity towards human 5-hydroxytryptamine 6 serotonin receptor.
In data set [17] the target is Serotonin 3 (5-HT3) receptor. Put plainly: Affinity towards human 5-hydroxytryptamine 3 serotonin receptor. In kind it is protein-complex assay.
The target of the next data set is Adenosine receptor A1 (Homo sapiens, UniProt P30542). Put plainly: Affinity towards human adenosine A1 receptor.
Another data set has as its target D(1A) dopamine receptor (Homo sapiens, UniProt P21728). Put plainly: Affinity towards human Dopamine receptor D1.
For the next data set, the target named is Adenosine receptor A3 (Homo sapiens, UniProt P0DMS8). Put plainly: Affinity towards human adenosine A3 receptor.
In another data set the target is D(2) dopamine receptor (Homo sapiens, UniProt P14416). As to the kind of experiment: Affinity towards human dopamine receptor D2.
In the next data set the target is D(1B) dopamine receptor (Homo sapiens, UniProt P21918). Put plainly: Affinity towards human dopamine receptor D5.
In data set [18] the target is 5-hydroxytryptamine receptor 5A (Homo sapiens, UniProt P47898). Put plainly: Affinity towards human 5-hydroxytryptamine 5A serotonin receptor.
A further data set deals with Histamine H1 receptor (Homo sapiens, UniProt P35367). As to the kind of experiment: Affinity towards histamine H1 receptor.
Data set [19] addresses 5-hydroxytryptamine receptor 1B (Homo sapiens, UniProt P28222). As to the kind of experiment: Affinity towards human 5-hydroxytryptamine 1B serotonin receptor.
The target of data set [20] is Adrenergic receptor alpha-1 (Homo sapiens, UniProt P35348+P25100+P35368). As to the kind of experiment: Affinity towards alpha-1 adrenergic receptor. It is filed as protein assay.
In data set [21] the target is Kappa-type opioid receptor (Homo sapiens, UniProt P41145). Put plainly: Affinity towards kappa opioid receptor.
The target in data set [22] is 5-hydroxytryptamine receptor 7 (Homo sapiens, UniProt P34969). Put plainly: Affinity towards human 5-hydroxytryptamine 7 serotonin receptor.
In a further data set the target is Mu-type opioid receptor (Homo sapiens, UniProt P35372). As to the kind of experiment: Affinity towards opioid receptor mu 1.
In data set [23] the target is Beta-2 adrenergic receptor (Homo sapiens, UniProt P07550). As to the kind of experiment: Affinity towards human beta-2 adrenergic receptor.
A short description of data set [24]: Binding towards chloride channel(Cl-); NA = Not active.
Data set [25] addresses A-type voltage-gated potassium channel KCND3 (Homo sapiens, UniProt Q9UK17). As to the kind of experiment: Binding towards potassium channel(K+); NA = Not active.
The target of data set [26] is 5-hydroxytryptamine receptor 2B (Homo sapiens, UniProt P41595). Put plainly: Affinity towards human 5-hydroxytryptamine 2B serotonin receptor.
The target in the next data set is Histamine H2 receptor (Homo sapiens, UniProt P25021). As to the kind of experiment: Affinity towards histamine H2 receptor.
Data set [27] concerns the target Muscarinic acetylcholine receptor M5 (Homo sapiens, UniProt P08912). As to the kind of experiment: Affinity towards human Muscarinic acetylcholine receptor M5.
In data set [28] the target is GABA-A receptor; anion channel. As to the kind of experiment: Binding affinity for GABA-A central benzodiazepine receptor. In kind it is protein-complex assay.
The next data set concerns the target Adenosine A2 receptor (Homo sapiens, UniProt P29275+P29274). As to the kind of experiment: Affinity towards human adenosine A2 receptor. It is filed as protein assay.
The target of data set [29] is Muscarinic acetylcholine receptor M2 (Homo sapiens, UniProt P08172). As to the kind of experiment: Affinity towards human muscarinic acetylcholine receptor M2.
The target in data set [30] is Sodium-dependent noradrenaline transporter (Homo sapiens) (UniProt P23975). Put plainly: Binding towards norepinephrine transporter; NA= Not active.
The target in data set [31] is Delta-type opioid receptor (Homo sapiens, UniProt P41143). As to the kind of experiment: Affinity towards opioid receptor delta 1.
Data set [32] addresses T1, Neuronal acetylcholine receptor; alpha4/beta2. Put plainly: Affinity for nicotinic acetylcholine receptor alpha4-beta2; NA = Not active. In kind it is protein-complex assay.
Data set [33] is filed under the species Mus musculus. Put plainly: Antinociceptive action was determined; P- Possess activity. It is filed as functional, organism-based.
Data set [34] concerns Mus musculus. Put plainly: Antinociceptive action was determined by hotplate assay in mouse administered subcutaneously at a dose of 10 mg/kg. Conditions: route subcutaneous. It is filed as functional.

T1 sequence (P17787 whole entry): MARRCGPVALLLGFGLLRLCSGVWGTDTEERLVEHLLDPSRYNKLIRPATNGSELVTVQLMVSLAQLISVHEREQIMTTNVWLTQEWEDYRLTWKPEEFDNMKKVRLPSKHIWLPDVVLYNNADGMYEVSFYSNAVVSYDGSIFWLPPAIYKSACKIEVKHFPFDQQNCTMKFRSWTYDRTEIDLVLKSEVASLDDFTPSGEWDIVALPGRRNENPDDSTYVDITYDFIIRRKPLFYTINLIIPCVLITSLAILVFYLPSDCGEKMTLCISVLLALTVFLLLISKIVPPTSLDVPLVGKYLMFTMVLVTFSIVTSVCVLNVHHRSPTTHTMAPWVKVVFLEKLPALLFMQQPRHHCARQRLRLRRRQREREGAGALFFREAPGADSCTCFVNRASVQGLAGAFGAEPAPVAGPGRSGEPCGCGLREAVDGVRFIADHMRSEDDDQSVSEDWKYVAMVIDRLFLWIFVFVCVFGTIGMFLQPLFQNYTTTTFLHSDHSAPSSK
T1 sequence (P43681 whole entry): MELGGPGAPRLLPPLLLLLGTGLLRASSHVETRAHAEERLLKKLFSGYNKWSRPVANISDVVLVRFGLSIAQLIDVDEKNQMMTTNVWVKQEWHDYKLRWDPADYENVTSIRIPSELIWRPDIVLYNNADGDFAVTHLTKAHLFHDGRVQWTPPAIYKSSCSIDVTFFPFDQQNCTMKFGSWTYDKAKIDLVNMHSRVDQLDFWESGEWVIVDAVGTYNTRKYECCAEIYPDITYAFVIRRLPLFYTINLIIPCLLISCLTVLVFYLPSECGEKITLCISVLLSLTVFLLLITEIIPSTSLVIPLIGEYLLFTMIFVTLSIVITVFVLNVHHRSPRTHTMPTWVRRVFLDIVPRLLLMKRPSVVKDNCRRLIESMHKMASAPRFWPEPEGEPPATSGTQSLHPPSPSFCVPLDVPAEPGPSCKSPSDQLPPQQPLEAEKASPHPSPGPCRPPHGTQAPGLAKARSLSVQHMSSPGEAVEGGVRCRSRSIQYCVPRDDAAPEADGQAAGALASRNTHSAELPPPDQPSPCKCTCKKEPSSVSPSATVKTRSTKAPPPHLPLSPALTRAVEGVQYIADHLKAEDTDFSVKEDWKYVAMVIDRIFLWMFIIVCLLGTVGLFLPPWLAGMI
Sequence of 5-hydroxytryptamine receptor 2C (P28335 whole entry): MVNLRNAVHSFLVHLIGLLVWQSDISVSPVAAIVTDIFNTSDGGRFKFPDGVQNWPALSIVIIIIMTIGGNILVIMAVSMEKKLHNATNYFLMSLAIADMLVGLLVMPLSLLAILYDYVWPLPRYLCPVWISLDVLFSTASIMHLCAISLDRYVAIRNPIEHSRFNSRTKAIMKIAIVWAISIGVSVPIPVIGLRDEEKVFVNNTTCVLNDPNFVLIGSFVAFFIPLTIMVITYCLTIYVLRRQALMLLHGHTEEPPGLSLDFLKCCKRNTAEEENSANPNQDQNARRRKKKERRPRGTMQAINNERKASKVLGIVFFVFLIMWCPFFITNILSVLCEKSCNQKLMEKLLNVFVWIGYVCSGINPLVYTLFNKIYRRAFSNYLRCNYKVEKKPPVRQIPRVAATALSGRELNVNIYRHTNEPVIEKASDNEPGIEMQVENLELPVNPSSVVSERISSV
Sequence of Muscarinic acetylcholine receptor M3 (P20309 whole entry): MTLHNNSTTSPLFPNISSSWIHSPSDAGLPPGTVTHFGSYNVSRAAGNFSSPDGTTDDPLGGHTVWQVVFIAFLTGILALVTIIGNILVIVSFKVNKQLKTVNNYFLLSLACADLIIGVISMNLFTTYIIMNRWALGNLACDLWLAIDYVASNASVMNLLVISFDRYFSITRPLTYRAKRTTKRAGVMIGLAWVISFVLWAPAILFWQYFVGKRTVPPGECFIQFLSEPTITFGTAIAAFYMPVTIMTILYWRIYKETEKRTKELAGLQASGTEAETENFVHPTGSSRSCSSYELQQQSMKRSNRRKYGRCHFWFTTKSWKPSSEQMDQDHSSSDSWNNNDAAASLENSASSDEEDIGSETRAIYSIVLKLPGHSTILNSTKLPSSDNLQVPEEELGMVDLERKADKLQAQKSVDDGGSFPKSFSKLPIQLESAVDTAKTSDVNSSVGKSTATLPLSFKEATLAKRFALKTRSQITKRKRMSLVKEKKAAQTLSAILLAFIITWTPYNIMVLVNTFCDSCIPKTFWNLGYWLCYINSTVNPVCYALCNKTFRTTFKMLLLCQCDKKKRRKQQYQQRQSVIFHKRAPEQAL
Sequence of 5-hydroxytryptamine receptor 2B (P41595 whole entry): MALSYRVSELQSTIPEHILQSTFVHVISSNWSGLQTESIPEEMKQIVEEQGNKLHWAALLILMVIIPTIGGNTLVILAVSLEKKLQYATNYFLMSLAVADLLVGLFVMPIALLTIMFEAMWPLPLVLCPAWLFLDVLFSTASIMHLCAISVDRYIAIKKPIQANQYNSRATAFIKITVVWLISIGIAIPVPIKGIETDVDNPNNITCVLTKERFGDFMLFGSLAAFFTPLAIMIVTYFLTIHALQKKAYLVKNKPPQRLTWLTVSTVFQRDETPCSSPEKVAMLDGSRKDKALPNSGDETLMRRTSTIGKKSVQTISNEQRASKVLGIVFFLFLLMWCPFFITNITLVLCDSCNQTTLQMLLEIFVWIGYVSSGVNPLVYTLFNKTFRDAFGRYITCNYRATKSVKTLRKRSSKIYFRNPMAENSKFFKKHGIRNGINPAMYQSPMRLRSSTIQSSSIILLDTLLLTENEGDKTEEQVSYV
Sequence of Sodium-dependent noradrenaline transporter (Homo sapiens) (P23975 whole entry): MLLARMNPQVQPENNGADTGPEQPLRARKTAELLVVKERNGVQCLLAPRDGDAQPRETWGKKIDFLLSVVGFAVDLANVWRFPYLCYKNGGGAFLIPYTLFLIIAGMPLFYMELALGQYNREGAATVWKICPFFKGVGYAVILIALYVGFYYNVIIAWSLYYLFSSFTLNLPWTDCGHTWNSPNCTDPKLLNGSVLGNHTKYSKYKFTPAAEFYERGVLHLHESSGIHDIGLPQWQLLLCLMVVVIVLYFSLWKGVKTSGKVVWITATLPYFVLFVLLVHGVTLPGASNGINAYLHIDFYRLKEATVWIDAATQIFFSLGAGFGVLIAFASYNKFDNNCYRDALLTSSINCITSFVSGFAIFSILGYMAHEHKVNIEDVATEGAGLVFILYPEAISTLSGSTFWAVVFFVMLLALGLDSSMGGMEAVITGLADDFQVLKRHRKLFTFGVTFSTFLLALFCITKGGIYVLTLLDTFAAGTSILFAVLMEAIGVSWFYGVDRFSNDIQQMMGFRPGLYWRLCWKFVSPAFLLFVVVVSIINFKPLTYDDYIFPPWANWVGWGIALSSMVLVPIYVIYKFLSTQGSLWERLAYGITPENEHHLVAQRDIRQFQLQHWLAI
Sequence of Muscarinic acetylcholine receptor M5 (P08912 whole entry): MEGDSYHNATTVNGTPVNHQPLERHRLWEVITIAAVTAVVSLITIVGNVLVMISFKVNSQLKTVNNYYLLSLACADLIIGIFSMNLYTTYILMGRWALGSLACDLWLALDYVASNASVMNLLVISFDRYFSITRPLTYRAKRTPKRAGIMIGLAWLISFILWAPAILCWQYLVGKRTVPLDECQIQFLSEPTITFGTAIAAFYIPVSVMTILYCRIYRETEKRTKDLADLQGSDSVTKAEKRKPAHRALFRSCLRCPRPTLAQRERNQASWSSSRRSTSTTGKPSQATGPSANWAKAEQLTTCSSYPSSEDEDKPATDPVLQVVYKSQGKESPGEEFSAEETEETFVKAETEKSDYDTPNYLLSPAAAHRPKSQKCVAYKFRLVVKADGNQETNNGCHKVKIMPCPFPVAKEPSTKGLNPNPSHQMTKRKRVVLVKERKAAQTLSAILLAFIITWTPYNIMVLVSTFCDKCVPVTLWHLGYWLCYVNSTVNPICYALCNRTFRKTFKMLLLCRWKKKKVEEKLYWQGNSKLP
Sequence of D(4) dopamine receptor (P21917 whole entry): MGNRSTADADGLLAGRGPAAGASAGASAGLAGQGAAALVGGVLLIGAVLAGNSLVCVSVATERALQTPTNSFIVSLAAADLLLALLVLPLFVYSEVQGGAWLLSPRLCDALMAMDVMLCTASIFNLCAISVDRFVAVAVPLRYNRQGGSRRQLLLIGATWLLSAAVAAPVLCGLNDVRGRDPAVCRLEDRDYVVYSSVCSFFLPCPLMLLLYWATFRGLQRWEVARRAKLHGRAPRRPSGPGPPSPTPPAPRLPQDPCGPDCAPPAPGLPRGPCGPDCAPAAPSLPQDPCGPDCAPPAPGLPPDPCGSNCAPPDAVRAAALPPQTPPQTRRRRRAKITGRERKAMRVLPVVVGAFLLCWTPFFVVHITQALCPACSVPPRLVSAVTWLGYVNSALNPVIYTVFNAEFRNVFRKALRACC
Sequence of Beta-2 adrenergic receptor (P07550 whole entry): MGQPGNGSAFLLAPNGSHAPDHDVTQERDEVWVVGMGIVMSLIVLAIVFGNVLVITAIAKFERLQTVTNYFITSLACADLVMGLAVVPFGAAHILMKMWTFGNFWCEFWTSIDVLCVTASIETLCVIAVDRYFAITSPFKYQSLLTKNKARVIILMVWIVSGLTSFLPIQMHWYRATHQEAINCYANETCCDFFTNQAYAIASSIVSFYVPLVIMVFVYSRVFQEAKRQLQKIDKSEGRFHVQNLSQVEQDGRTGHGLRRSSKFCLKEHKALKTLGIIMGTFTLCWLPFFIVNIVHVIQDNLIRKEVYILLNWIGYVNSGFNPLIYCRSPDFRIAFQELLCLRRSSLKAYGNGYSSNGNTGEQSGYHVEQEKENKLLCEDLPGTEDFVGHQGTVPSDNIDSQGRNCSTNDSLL
Sequence of 5-hydroxytryptamine receptor 5A (P47898 whole entry): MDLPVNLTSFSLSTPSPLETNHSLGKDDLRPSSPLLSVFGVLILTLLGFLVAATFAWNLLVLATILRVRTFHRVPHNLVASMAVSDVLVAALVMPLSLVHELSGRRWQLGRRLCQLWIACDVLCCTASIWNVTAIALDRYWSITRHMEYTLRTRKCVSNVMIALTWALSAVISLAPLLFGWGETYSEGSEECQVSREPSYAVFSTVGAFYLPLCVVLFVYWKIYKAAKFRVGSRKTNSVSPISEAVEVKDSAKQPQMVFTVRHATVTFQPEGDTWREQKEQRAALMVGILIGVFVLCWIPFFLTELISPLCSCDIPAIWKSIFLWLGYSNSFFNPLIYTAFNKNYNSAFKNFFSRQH

For `CN1CCC[C@H]1c1cccnc1` [NICOTINE], the ED50 in the data set with Mus musculus [1] worked out at 1.5 mg/kg; in the data set with Mus musculus [2] it was 0.5 mg/kg; with Mus musculus [3], 12 µg/mouse.

The Ki is a dissociation constant, usually derived from enzyme kinetics or from competition with a known ligand. Read a low Ki as a stronger hold on the target. With `CN(C)C1CCCc2ccncc21` (stereo not given), the MPE in the data set with Mus musculus [4] amounted to 2%; in the data set on Mus musculus [5] it was 8%. For the same compound, the ED50 in the data set on Mus musculus [2] came to 3.9 mg/kg. Besides, in data set [6], affinity was put at a Ki of 0.33 µM.

As to `CCN(C)C1CCCc2ccncc21.O=C(O)/C=C\C(=O)O.O=C(O)/C=C\C(=O)O` (stereo not given), the result in [7], in data set [11], in [13], in data set [24] and in data set [30] was inactive. Also, the Ki (on D(3) dopamine receptor; in data set [8]; on D(4) dopamine receptor; in data set [9]; in data set [10]; on Translocator protein) was above 10 µM each time. Further, the Ki (in [12]; in data set [14]; in [15]; in [16]; in data set [17]; on Adenosine receptor A1) was above 10 µM throughout. Further, the inhibition constant Ki (on D(1A) dopamine receptor; at Adenosine receptor A3; on D(2) dopamine receptor; at D(1B) dopamine receptor; in [18]; at Histamine H1 receptor) was above 10 µM throughout. Also, the inhibitory constant (Ki) (in data set [19]; in data set [20]; in data set [21]; in [22]; on Mu-type opioid receptor; in [23]) was above 10 µM throughout. The inhibitory constant (Ki) is above 10 µM in data set [26]; above 10 µM at Histamine H2 receptor; above 10 µM in [27]; 0.93 µM in [6]; above 10 µM in [28]; above 10 µM on Adenosine A2 receptor. The inhibition constant Ki in data set [29] and in [31] was above 10 µM in each case. Besides, the ED50 in the data set on Mus musculus [1] was 0.6 mg/kg; in the data set with Mus musculus [2], 0.2 mg/kg; in the data set with Mus musculus [3] it was 12 µg/mouse. Moreover, in [25], the Activity result is listed as “Not Active”.

As to `CN1CCC2CCc3ccncc3C21` (stereo not given), in [32], the Ki entry was “Not Active”. Moreover, the result in the data set filed under Mus musculus [33] was Active.

Consider `COc1cc2c(cn1)C1NCCC1CC2` (stereo not given), for which, in [32], the Ki result was “Not Active”. Also, in the data set filed under Mus musculus [33], the result was Active.

With `NC1CCCc2ccncc21` (stereo not given), the MPE in the data set on Mus musculus [34] was determined as 10%; with Mus musculus [4], 1%. Moreover, in [6], the inhibition constant Ki is above 10 µM.

With `CCCN(C)C1CCCc2ccncc21` (stereo not given), in data set [6], the inhibitory constant (Ki) is above 10 µM.

Take `CCCNC1CCCc2ccncc21` (stereo not given): the Ki in data set [6] is above 10 µM.

With `CNC1CCCc2ccncc21` (stereo not given), the MPE was 2% in the data set on Mus musculus [34] and 0% with Mus musculus [4]. The compound further registered a Ki in data set [6] above 10 µM. Further, in the data set with Mus musculus [3], the ED50 was determined as 13 µg/mouse.

Turning to `c1cc2c(cn1)C(N1CCCC1)CCC2` (stereo not given), the values for the MPE in the data set with Mus musculus [34], in the data set on Mus musculus [4] and with Mus musculus [5] were 11%, 2% and 6%, respectively. In addition, in data set [6], the Ki was above 10 µM.
